According to patent publication US12522606B2, “Modified pyrrolo- and pyrazolo-pyrimidines for prostate cancer therapy” (University of Washington, priority 2020, dated 2026):

Tests used:
[1] = Plasma protein binding, mouse; format: in vitro ADME
PC3 = experiment: MTT proliferation assay, PC3; conditions: Homo sapiens; for inhibition at 10 µM: PC-3, read-out: MTT % inhib @ 10 μM PC3; for EC50: read-out: EC50 PC3
LNCaP95 = experiment: MTT proliferation assay, LNCaP95; format: cell-based; conditions: Homo sapiens, LNCaP-95; for EC50: Table 1, LNCaP95 (AR+ PCa), unit inferred; for inhibition at 10 µM: read-out: MTT % inhib @ 10 μM LNCaP95
Experimental: Anti-tumor activity was determined by screening a series of compounds against the castrate-resistant, androgen-receptor-positive, prostate cancer cell line LNCaP95. […] Inhibition of proliferation was determined based on the level of LNCaP95 cell growth suppression using an MTT assay (NAD(P)H-dependent cellular oxidoreductase enzymatic activities)) read at 72 and 96 hours after addition of the compounds. […] Each cell line was be tested in quadruplicate.

in vitro [2] = conditions: human, CRL-8155 lymphoblastoid cell line
Excerpt: (§1) HepG2 is hepatoma liver tumor cell line. CRL8155 is lymphoblastoid cell line.

in vitro [3] = conditions: human, HepG2 hepatoma cell line
Excerpt: as §1

prostate cancer tumor = conditions: 60 mg/kg, 2× daily; cited from earlier work
[4] = background statement; cited from earlier work
[5] = background statement; cited from earlier work; remark: listed apart in the source
PK Oral (MMV) = format: in vivo; conditions: for Cmax / Tmax: in vivo
LNCaP cells = experiment: Cell death in LNCaP cells, alone or in combination, 24 h (FIG. 6); format: cell-based
Experimental: FIG. 6 evaluation of Compound 1 and metformin in LNCaP cells. LNCaP cells were treated with Compound 1, oligomycin (Oli), 2-deoxy-d-glucose (2-DG), or metformin (Met), alone or in combination for 24 h.
FIGS. 2-4 provide additional results on the activity of the compounds of the disclosure. […] Co-administration of Compound 1 and metformin is illustrated in FIG. 6. LNCaP cells were treated with Compound 1, oligomycin (Oli), 2-deoxy-d-glucose (2-DG), or metformin (Met), alone or in combination for 24 h. […] None of compounds were sufficient to kill cells under the same conditions on their own.

| SMILES | fraction unbound [1] | EC50 (PC3) | EC50 (LNCaP95) | inhibition at 10 µM (PC3) | inhibition at 10 µM (LNCaP95) | CC50 (in vitro [2]) | CC50 (in vitro [3]) | further results |
| --- | --- | --- | --- | --- | --- | --- | --- | --- |
| CCOc1ccc2cc(-c3nn(CC(C)(C)O)c4ncnc(NC)c34)ccc2c1 [Example 14, 1-(3-(6-ethoxynaphthalen-2-yl)-4-(methylamino)-1H-pyrazolo[3,4-d]pyrimidin-1-yl)-2-methylpropan-2-ol] | 0.0079 | > 20 µM | 12 µM | -3.5% | 42.7% | > 80 µM | > 80 µM |  |
| COCCOc1ncnc2c1c(-c1ccc(-c3ccccc3)cc1)cn2CC(C)(C)O [Example 4, 1-(5-(biphenyl-4-yl)-4-(2-methoxyethoxy)-7H-pyrrolo[2,3-d]pyrimidin-7-yl)-2-methylpropan-2-ol] |  | > 20 µM | 5 µM | 13% | 36.3% | > 80 µM |  |  |
| CC(C)(O)Cn1cc(-c2ccc3cc(OC4CC4)ccc3c2)c2c(NCCOCCOCCOCCN)ncnc21 [Example 28, 1-(4-(2-(2-(2-(2-aminoethoxy)ethoxy)ethoxy)ethylamino)-5-(6-cyclopropoxynaphthalen-2-yl)-7H-pyrrolo[2,3-d]pyrimidin-7-yl)-2-methylpropan-2-ol] |  | > 20 µM | 4 µM | -8.3% | 43% | 15.4 µM | 30.7 µM |  |
| CNc1ncnc2c1c(-c1ccc(-c3ccccc3)cc1)nn2CC(C)(C)O [Example 12, 1-(3-(biphenyl-4-yl)-4-(methylamino)-1H-pyrazolo[3,4-d]pyrimidin-1-yl)-2-methylpropan-2-ol] |  | > 20 µM | 12 µM | 8.4% | 36.7% | > 80 µM | > 80 µM |  |
| Fc1ccc(Cl)cc1-c1nc(Nc2ccncc2)c2nccnc2n1 [SD-208] |  |  |  |  |  |  |  | prostate cancer tumor growth in vivo (prostate cancer tumor): decrease in prostate cancer tumor growth |
| CC(C)(C)n1nc(Cc2cccc3ccccc23)c2c(N)ncnc21 [Example 1NM-PP1] |  |  |  |  |  |  |  | metabolism [4]: quickly metabolized; solubility [5]: low solubility |
| CC(C)(C)n1nc(-c2cccc3ccccc23)c2c(N)ncnc21 [Example 1NA-PP1] |  |  |  |  |  |  |  | metabolism [4]: quickly metabolized; solubility [5]: low solubility |
| O=CC[C@@H](O)[C@H](O)[C@H](O)CO [Example 2-DG, 2-deoxy-d-glucose, reference compound] |  |  |  |  |  |  |  | cell death in combination with oligomycin or metformin (LNCaP cells): cause cell death |
| COCCOc1ncnc2c1c(-c1ccc3cc(OC4CC4)ccc3c1)cn2CC(C)(C)O [Example 2, 1-(5-(6-cyclopropoxynaphthalen-2-yl)-4-(2-methoxyethoxy)-7H-pyrrolo[2,3-d]pyrimidin-7-yl)-2-methylpropan-2-ol] |  | > 20 µM | 6 µM | 12.8% | 32% | > 40 µM | > 40 µM | AUC (PK Oral (MMV); dose 30.8 mg/kg): 822 µmol·min/L; Cmax (PK Oral (MMV); dose 30.8 mg/kg): 34.4 µM; Tmax (PK Oral (MMV); dose 30.8 mg/kg): 1 h |
| CNc1ncnc2c1c(-c1cccc(Cl)c1)cn2CC(C)(C)OC [Example 22, 5-(3-chlorophenyl)-7-(2-methoxy-2-methylpropyl)-N-methyl-7H-pyrrolo[2,3-d]pyrimidin-4-amine] |  | > 20 µM | 10 µM | 4.3% | 40.1% | > 80 µM | > 80 µM |  |
| CNc1ncnc2c1c(-c1ccc(-c3ccccc3)cc1)cn2CC(C)(C)O [Example 13, 1-(5-(biphenyl-4-yl)-4-(methylamino)-7H-pyrrolo[2,3-d]pyrimidin-7-yl)-2-methylpropan-2-ol] |  | > 20 µM | 12 µM | -4.3% | 40.9% | > 80 µM | > 80 µM |  |
| CNc1ncnc2c1c(-c1ccc(-c3ccc(Br)cc3)cc1)cn2CC(C)(C)OC [Example 33, 5-(4′-bromobiphenyl-4-yl)-7-(2-methoxy-2-methylpropyl)-N-methyl-7H-pyrrolo[2,3-d]pyrimidin-4-amine] | 0.0064 | > 20 µM | 5 µM | 11.4% | 30.7% |  |  |  |
| CNc1ncnc2c1c(-c1ccc3cc(OC(C)C)ccc3c1)cn2CC(C)(C)OC [Example 32, 5-(6-isopropoxynaphthalen-2-yl)-7-(2-methoxy-2-methylpropyl)-N-methyl-7H-pyrrolo[2,3-d]pyrimidin-4-amine] | 0.0069 | > 20 µM | 3 µM | 14.6% | 5.1% |  |  |  |

Further lines, with some results ahead:

| fraction unbound [1] | EC50 (PC3) | EC50 (LNCaP95) | SMILES | inhibition at 10 µM (PC3) | inhibition at 10 µM (LNCaP95) | CC50 (in vitro [2]) | CC50 (in vitro [3]) | further results |
| --- | --- | --- | --- | --- | --- | --- | --- | --- |
| 0.0077 | > 20 µM | 3 µM | CCOc1ccc2cc(-c3cn(CC(C)(C)OC)c4ncnc(NC)c34)ccc2c1 [Example 18, 5-(6-ethoxynaphthalen-2-yl)-7-(2-methoxy-2-methylpropyl)-N-methyl-7H-pyrrolo[2,3-d]pyrimidin-4-amine] | 21% | 44.9% | > 80 µM | > 80 µM |  |
|  | > 20 µM | 5 µM | CCOc1ccc2cc(-c3cn(CC(C)(C)O)c4ncnc(OCC)c34)ccc2c1 [Example 5, 1-(4-ethoxy-5-(6-ethoxynaphthalen-2-yl)-7H-pyrrolo[2,3-d]pyrimidin-7-yl)-2-methylpropan-2-ol] | -3.2% | 50.9% | > 80 µM | > 80 µM |  |
| 0.0019 | > 20 µM | 3 µM | CCOc1ccc2cc(-c3cn(CC(C)(C)O)c4ncnc(NC)c34)ccc2c1 [Example 11, 1-(5-(6-ethoxynaphthalen-2-yl)-4-(methylamino)-7H-pyrrolo[2,3-d]pyrimidin-7-yl)-2-methylpropan-2-ol] | 1.6% | 55.6% | > 80 µM | > 80 µM |  |
|  | > 20 µM | 10 µM | CCOCCNc1ncnc2c1c(-c1ccc3cc(OCC)ccc3c1)cn2CC(C)(C)O [Example 31, 1-(4-(2-ethoxyethylamino)-5-(6-ethoxynaphthalen-2-yl)-7H-pyrrolo[2,3-d]pyrimidin-7-yl)-2-methylpropan-2-ol] | 14.9% | 34.9% |  |  | AUC (PK Oral (MMV); dose 25 mg/kg): 1724 µmol·min/L; Cmax (PK Oral (MMV); dose 25 mg/kg): 7.8 µM; Tmax (PK Oral (MMV); dose 25 mg/kg): 1 h |
| 0.0017 | > 20 µM | 8 µM | CNc1ncnc2c1c(-c1ccc3cc(OC4CC4)ccc3c1)cn2CC(C)(C)O [Example 15, 1-(5-(6-cyclopropoxynaphthalen-2-yl)-4-(methylamino)-7H-pyrrolo[2,3-d]pyrimidin-7-yl)-2-methylpropan-2-ol] | 2.8% | 53.2% | > 80 µM | > 80 µM |  |
|  | > 20 µM | 10 µM | CCOc1ncnc2c1c(-c1ccc3cc(OC4CC4)ccc3c1)cn2CC(C)(C)O [Example 6, 1-(5-(6-cyclopropoxynaphthalen-2-yl)-4-ethoxy-7H-pyrrolo[2,3-d]pyrimidin-7-yl)-2-methylpropan-2-ol] | 10.1% | 20.3% | > 40 µM | > 40 µM | AUC (PK Oral (MMV); dose 24.6 mg/kg): 400 µmol·min/L; Cmax (PK Oral (MMV); dose 24.6 mg/kg): 17.6 µM; Tmax (PK Oral (MMV); dose 24.6 mg/kg): 1 h |
|  | > 20 µM | 7 µM | CCOc1ccc2cc(-c3cn(CC(C)(C)O)c4ncnc(OCCOC)c34)ccc2c1 [Example 3, 1-(5-(6-ethoxynaphthalen-2-yl)-4-(2-methoxyethoxy)-7H-pyrrolo[2,3-d]pyrimidin-7-yl)-2-methylpropan-2-ol] | 2.9% | 36.5% |  |  | AUC (PK Oral (MMV); dose 25 mg/kg): 2559 µmol·min/L; Cmax (PK Oral (MMV); dose 25 mg/kg): 5.1 µM; Tmax (PK Oral (MMV); dose 25 mg/kg): 0.667 h |
